The source of these data is US5707855A (priority 1996, dated 1998).

In brackets after ≈: the same amount, converted by molar mass.

The nature of test [1]: MICs of common antibiotics in the presence of sub-MIC levels of cationic peptides. The class given is cell-based. The conditions noted are these: for MIC of antibiotic: No peptide. As to the method:
(§1) The minimum inhibitory concentrations of (MIC) of CEME, CEMA and melittin were determined for a number of different bacteria (Table 2). Briefly, cells were grown overnight at 37° C. in LB-S (Luria broth without any salt supplement) and diluted one in 10,000 in the same medium to give concentrations of about 10^4 to 10^5 CFU/ml. The broth dilutions were set up in a 96 well microtiter plate by putting 200 μl of LB-S containing the initial concentration of antibiotic or compound in column 1 and 100 μl of the same medium in columns 2-12. The compounds were diluted by taking 100 μl of broth from column 1 and mixing it with column 2, resulting in a one in two dilution. This was continued to column 10. Finally, 10 μl of bacteria were pipetted into columns 1-11, and the plates incubated overnight at 37° C. The next day the plates were scored for growth in the wells, and the MIC determined.
The ability of the cationic peptides to work synergystically was examined by determining the MIC values for some commonly used antibiotics in the presence of sub-MIC levels of cationic peptides (Table 4). […] This may be due to the high membrane permeabilizing activity of CEMA (see below). However, the peptides did lower the MIC of polymyxin B, possibly due to the fact that they are all taken up by the same pathway and are therefore aiding each other's uptake. Of interest is the influence that melittin has on the MIC of polymyxin B, given the […] membrane permeabilizing activity of melittin.

Test [2] deals with P. AERUGINOSA H309. It counts as cell-based. As to conditions: +80 mM Na+. As to the method:
as §1, with “Briefly,” for “The minimum inhibitory concentrations of (MIC) of CEME, CEMA and melittin were determined for a number of different bacteria (Table 2). Briefly,”

The test system of a further test is S. typhimurium. The class given is cell-based. The conditions noted are these: C590 versus C587. As to the method:
as §1

Test [3] has as its system P. AERUGINOSA H309. It counts as cell-based. As to conditions: 10 μM NPN; fluorescence increase. An excerpt:
(§2) The second assay determined membrane permeability by the ability of 1-N-phenylnaphthylamine (NPN), a small fluorescent probe, to insert itself into the membrane. Normally, very little NPN can penetrate the outer membrane, but in the presence of a membrane permeabilizer it can insert into the hydrophobic membrane resulting in an increase in fluorescence (FIGS. 7 and 8). This N-phenylnaphthylamine uptake assay was previously described by Loh, et al., Antimicrobial Agents and Chemo., 26:546, 1984. Cells were prepared exactly the same as for the lysozyme lysis assay. 1-N-phenylnaphthylamine (NPN) was dissolved in acetone at a concentration of 500 μM. NPN fluorescence was measured in a Perkin-Elmer 650-10S fluorescent spectrophotometer using excitation and emission wavelengths set to 350 nm and 420 nm respectively, with slit widths of 5 nm. The assay was standardized by adding 20 μl of NPN (final concentration of 10 μM) and 10 μl of 0.64 mg/ml of polymyxin B (final concentration of 6.4 μg/ml) into 1 ml of cells, and adjusting the resulting fluorescence to read 90% deflection (90 arbitrary units). Various compounds were tested by adding 10 μl of different concentrations to a cuvette containing 1 ml of cells and 10 μM NPN. Permeabilizing activity was designated as the total fluorescence minus the fluorescence due to NPN alone. Following the fluorescence measurement, the OD600 of the cells was taken to ensure no significant cell lysis had occurred.

The subject of test [4] is P. AERUGINOSA H309. Briefly: Lysozyme lysis assay (outer membrane permeabilization). It counts as cell-based. How it is done: Membrane permeabilization by polycationic compounds was measured in two different assays. The first assay measured membrane disruption by the ability of lysozyme to reach the periplasm and cause cell lysis. […] The uptake of lysozyme into whole cells due to membrane permeabilization by various compounds was previously described in Hancock, et al., Antimicrobial Agents and Chemo., 19:777, 1981. Overnight cultures of P. aeruginosa H309 or E. cloacae 218R1 grown in LB-S were diluted 1 in 50 in fresh medium and grown to an OD600 =0.5-0.6. The cells were harvested in a Silencer H-103N clinical centrifuge at 1800 g for 10 min, washed once with one volume of assay buffer (5 mM HEPES pH 7.2, 5 mM KCN), and resuspended in the same buffer to an OD600 of 0.5. Assays consisted of 600 μl of cells with 50 μg/ml of chicken egg white lysozyme and varying concentrations of cationic compounds. Cell lysis was measured as a decrease in the OD600 in a Perkin-Elmer dual beam spectrophotometer. Parallel experiments performed without lysozyme enabled the measurement of the lytic activity of the compounds themselves. To test whether or not permeability to lysozyme could be inhibited by divalent cations, various concentrations of MgCl2 were added to the assay after the addition of lysozyme and before the addition of the test compound.

The next test deals with P. aeruginosa H103 LPS. Briefly: Dansyl polymyxin (DPx) displacement from purified LPS. It counts as binding. As to conditions: on a μM basis. How it is done:
In this assay, DPx was incubated with LPS to saturate the binding sites and then, while polycationic compounds are titrated into the reaction, displacement of the DPx was monitored by the decrease in fluorescence (FIG. 9).
The method of Moore, et al., (Antimicrobial Agents and Chemo., 29:496, 1987), was used to test how much DPx was needed to saturate the binding sties on LPS. Briefly, 5 μl samples of 100 μM DPx were titrated sequentially into 1 ml of 3 μg/ml of LPS until a maximum fluorescence was reached. The fluorescence was measured in a Perkin-Elmer 650-10S fluorescence spectrophotometer with an excitation wavelength of 340 nm and an emission wavelength of 485 nm using slit widths of 5 nm. […] For the binding inhibition assays (Moore, et al., Antimicrobial Agents and Chemo., 29:496, 1987), 2.5 μM DPx was added to 3 μg/ml of H103 LPS in 5 mM HEPES pH 7.2. The test compounds were added 5 μl at a time and the decrease in fluorescence due to displacement of the DPx from the LPS was recorded.

The subject of the next test is E. coli strain DC2. Briefly: Acid-urea gel overlay antibacterial activity. It counts as cell-based. As to conditions: 15% acid-urea gel overlaid with agar containing ≈10^5 cells, overnight at 37° C. As to the method: A sample of the partially purified CEME protein was electrophoresed on a 15% acid-urea gel, which separates proteins based on charge and mass (Panyim and Chalkey, Arch. Biochem Biophys., 130:337, 1969). The pH of the buffer is acidic (≈pH 5.0) and the polarity is reversed such that proteins migrate to the cathode. Therefore, the small cationic peptides run relatively quickly through the gel and thus can be easily identified. Antibacterial activity was tested as previously described (Hultmark, Eur. J. Biochem., 106:7, 1980). The gel was incubated in Mueller Hinton broth+0.2M NaPO4 pH 7.4 for 1 hr. It was overlaid with mls of the same media containing 0.6% agar and≈10^5 E. coli strain DC2, and then again with ml of the same media containing only 0.6% agar. […] Melittin is used as a positive control due to its antibacterial activity and similarity in size and PI values.

Test [5] concerns P. aeruginosa H309 Whole Cells. The class given is binding. The conditions noted are these: 5 mM HEPES pH 7.2, 5 mM KCN; average of at least three trials; read-out: I50 (DPx displacement from whole cells).
The subject of another test is E. cloacae. The class given is cell-based. As to conditions: strain 218S, Parent of 218R1. How it is done: as §1
A further test concerns E. coli. The class given is cell-based. As to conditions: strain UB1005, Parent of DC2. As to the method: as §1
For a further test, the system named is E. cloacae 218R1. The class given is cell-based. The conditions noted are these: 10 μM NPN; fluorescence increase.
Text: as §2

Turning to `CC(C)(O/N=C(\C(=O)N[C@@H]1C(=O)N2C(C(=O)[O-])=C(C[n+]3ccccc3)CS[C@H]12)c1csc(N)n1)C(=O)O` [Ceftazidime, ceftazidime], the “MIC of antibiotic in the presence of CEMA” value (“MIC of antibiotic … of CEMA” below) in [1] (CEMA 0.7 μg/ml) and in test [1] (CEMA 1.4 μg/ml) was 2 µg/mL throughout. Moreover, the “MIC of antibiotic in the presence of CEME” value (“MIC of antibiotic … of CEME” below) in [1] (CEME 0.6 μg/ml) and in test [1] (CEME 1.2 μg/ml) was 4 µg/mL in each case. Besides, the “MIC of antibiotic in the presence of Melittin” value (“MIC of antibiotic … of Melittin” below) in test [1] (Melittin 2 μg/ml) was found to be 4 µg/mL; in [1] (Melittin 4 μg/ml), 2 µg/mL. The MIC of antibiotic in test [1] worked out at 4 µg/mL. This molecule also displayed a minimal inhibitory concentration (MIC) in the test on P. AERUGINOSA H309 [2] of 2 µg/mL (≈ 3.66 µM). Moreover, the “Sensitivity of defensin sensitive strain C590 relative to parent (MIC change)” value in the test on S. typhimurium is recorded as “unchanged”.

In the case of `C[C@@H](O)[C@H]1C(=O)N2C(C(=O)O)=C(SCCN=CN)C[C@H]12` [Imipenem], the “MIC of antibiotic … of CEMA” value turned out to be 4 µg/mL in test [1] (CEMA 0.7 μg/ml) and 2 µg/mL in test [1] (CEMA 1.4 μg/ml). The “MIC of antibiotic … of CEME” value in test [1] (CEME 0.6 μg/ml) and in test [1] (CEME 1.2 μg/ml) was 4 µg/mL each time. The “MIC of antibiotic … of Melittin” value in test [1] (Melittin 2 μg/ml) and in test [1] (Melittin 4 μg/ml) was 4 µg/mL throughout. For the same molecule, the MIC of antibiotic in [1] was 4 µg/mL.

`CC[C@H](C)[C@H](NC(=O)CN)C(=O)NCC(=O)N[C@@H](C)C(=O)N[C@H](C(=O)N[C@@H](CC(C)C)C(=O)N[C@@H](CCCCN)C(=O)N[C@H](C(=O)N[C@@H](CC(C)C)C(=O)N[C@H](C(=O)N[C@H](C(=O)NCC(=O)N[C@@H](CC(C)C)C(=O)N1CCC[C@H]1C(=O)N[C@@H](C)C(=O)N[C@@H](CC(C)C)C(=O)N[C@H](C(=O)N[C@@H](CO)C(=O)N[C@@H](Cc1c[nH]c2ccccc12)C(=O)N[C@H](C(=O)N[C@@H](CCCCN)C(=O)N[C@@H](CCCNC(=N)N)C(=O)N[C@@H](CCCCN)C(=O)N[C@@H](CCCNC(=N)N)C(=O)N[C@@H](CCC(N)=O)C(=O)N[C@@H](CCC(N)=O)C(N)=O)[C@@H](C)CC)[C@@H](C)CC)[C@@H](C)O)[C@@H](C)O)C(C)C)C(C)C` [Melittin, melittin]: the “Activity in opening up the membrane to NPN” value in the test on P. AERUGINOSA H309 [3] was “less active”. Further, the “Permeabilization of the outer membrane to lysozyme, compared with polymyxin B” value in the test on P. AERUGINOSA H309 [4] (50 μg/ml lysozyme, decrease in OD600) was “did not appear to be a good permeabilizer”. For the same molecule, the “Cell lysis in the absence of lysozyme” value in the test on P. AERUGINOSA H309 [4] (increased concentrations of peptide) is listed as “cell lysis in the absence of lysozyme occurred”. The “Permeabilizer activity relative to gentamicin” value in the test with P. AERUGINOSA H309 [4] (lysozyme lysis assay) was 5- to 10 fold. Besides, the “Affinity for LPS compared with polymyxin B” value in the test with P. aeruginosa H103 LPS is recorded as “slightly lower affinities”. Further, in the test with S. typhimurium, the “Sensitivity of defensin sensitive strain C590 relative to parent (MIC change)” value is “two-fold more sensitive”. In the test with E. coli strain DC2, the “Antibacterial activity in overlaid gel” value was “zones of clearing”.

As to `CN(C)[C@@H]1C(O)=C(C(N)=O)C(=O)[C@@]2(O)C(O)=C3C(=O)c4c(O)cccc4[C@@](C)(O)[C@H]3C[C@@H]12` [Tetracycline], the figures for the “MIC of antibiotic … of CEMA” value in test [1] (CEMA 0.7 μg/ml) and in [1] (CEMA 1.4 μg/ml) were 8 µg/mL and 4 µg/mL, respectively. For the same molecule, the “MIC of antibiotic … of CEME” value in test [1] (CEME 0.6 μg/ml) and in test [1] (CEME 1.2 μg/ml) was 8 µg/mL in each case. The “MIC of antibiotic … of Melittin” value in test [1] (Melittin 2 μg/ml) and in test [1] (Melittin 4 μg/ml) was 8 µg/mL each time. For the same molecule, the MIC of antibiotic in test [1] amounted to 8 µg/mL.

With gentamicin, the IC50 in test [5] turned out to be 39.1 ± 9.67 µM. The MIC came out at 0.5 µg/mL in the test with E. cloacae and 1 µg/mL with E. coli. In the test with S. typhimurium, the “Sensitivity of defensin sensitive strain C590 relative to parent (MIC change)” value is “two-fold more sensitive”.

Regarding polymyxin B, the “Activity in opening up the membrane to NPN” value in the test with P. AERUGINOSA H309 [3] and in the test on E. cloacae 218R1 was “equally active” throughout. In addition, the entries for the “MIC of antibiotic … of CEMA” value in [1] (CEMA 0.7 μg/ml) and in test [1] (CEMA 1.4 μg/ml) were 0.5 µg/mL and 0.12 µg/mL, respectively. Also, the “MIC of antibiotic … of CEME” value in test [1] (CEME 0.6 μg/ml) was determined as 0.5 µg/mL; in test [1] (CEME 1.2 μg/ml), 0.25 µg/mL. In addition, the figures for the “MIC of antibiotic … of Melittin” value in [1] (Melittin 2 μg/ml) and in test [1] (Melittin 4 μg/ml) were 0.5 µg/mL and 0.06 µg/mL, respectively. The MIC of antibiotic in test [1] turned out to be 1 µg/mL. Also, in [5], the IC50 was determined as 2.04 ± 0.65 µM. Moreover, the MIC in the test with E. cloacae and with E. coli was 0.5 µg/mL throughout. For the same molecule, the “Sensitivity of defensin sensitive strain C590 relative to parent (MIC change)” value in the test with S. typhimurium is recorded as “four-fold more sensitive”.

As a reminder, the MIC is the lowest concentration found to suppress growth.
